Measurements from paper PMC6914780 (2019).

Assays:
[1] = test system: SAM-VI WT (B. angulatum 59 metK, U1A loop, crystallization/ITC construct) (RNA, riboswitch) GGCAUUGUGCCUCGCAUUGCACUCCGCGGGGCGAUAAGUCCUGAAAAGGGAUGUC; assay: ITC; settings: K+ 50 mM, Mg2+ 10 mM; 40 mM HEPES pH 7.0, 20 °C
[2] = test system: U6C U39Ap SAM-VI (RNA, riboswitch, 2-aminopurine at U39 (paper numbering)) GGCAUCGUGCCUCGAAAGGGGCGAUAAGUCCUGAAAAGGGAUGUC; assay: stopped-flow 2-aminopurine fluorescence; settings: K+ 100 mM, Mg2+ 2 mM; 50 mM KMOPS pH 7.5, 20 °C; association rate constant
[3] = test system: wt U39Ap SAM-VI (GAAA tetraloop) (RNA, riboswitch, 2-aminopurine at U39 (paper numbering)) GGCAUUGUGCCUCGAAAGGGGCGAUAAGUCCUGAAAAGGGAUGUC; assay: stopped-flow 2-aminopurine fluorescence; settings: K+ 100 mM, Mg2+ 2 mM; 50 mM KMOPS pH 7.5, 20 °C; association rate constant
[4] = test system: SAM-VI U6C (RNA, riboswitch) GGCAUCGUGCCUCGCAUUGCACUCCGCGGGGCGAUAAGUCCUGAAAAGGGAUGUC; assay: ITC; settings: K+ 50 mM, Mg2+ 10 mM; 40 mM HEPES pH 7.0, 20 °C
[5] = test system: SAM-VI A34C (RNA, riboswitch) GGCAUUGUGCCUCGCAUUGCACUCCGCGGGGCGCUAAGUCCUGAAAAGGGAUGUC; assay: ITC; settings: K+ 50 mM, Mg2+ 10 mM; 40 mM HEPES pH 7.0, 20 °C; N.D.; 0.5-1 mM ligand in syringe
[6] = test system: U6C U39Ap SAM-VI (RNA, riboswitch, 2-aminopurine at U39 (paper numbering)) GGCAUCGUGCCUCGAAAGGGGCGAUAAGUCCUGAAAAGGGAUGUC; assay: 2-aminopurine fluorescence titration; settings: K+ 100 mM, Mg2+ 2 mM; 50 mM KMOPS pH 7.5, 20 °C; apparent
[7] = test system: SAM-VI U8G (RNA, riboswitch) GGCAUUGGGCCUCGCAUUGCACUCCGCGGGGCGAUAAGUCCUGAAAAGGGAUGUC; assay: ITC; settings: K+ 50 mM, Mg2+ 10 mM; 40 mM HEPES pH 7.0, 20 °C; N.D.; 0.5-1 mM ligand in syringe
[8] = test system: SAM-VI G7C (RNA, riboswitch) GGCAUUCUGCCUCGCAUUGCACUCCGCGGGGCGAUAAGUCCUGAAAAGGGAUGUC; assay: ITC; settings: K+ 50 mM, Mg2+ 10 mM; 40 mM HEPES pH 7.0, 20 °C; N.D.; 0.5-1 mM ligand in syringe
[9] = test system: wt U39Ap SAM-VI (GAAA tetraloop) (RNA, riboswitch, 2-aminopurine at U39 (paper numbering)) GGCAUUGUGCCUCGAAAGGGGCGAUAAGUCCUGAAAAGGGAUGUC; assay: 2-aminopurine fluorescence titration; settings: K+ 100 mM, Mg2+ 2 mM; 50 mM KMOPS pH 7.5, 20 °C; apparent
[10] = test system: SAM-VI U8C (RNA, riboswitch) GGCAUUGCGCCUCGCAUUGCACUCCGCGGGGCGAUAAGUCCUGAAAAGGGAUGUC; assay: ITC; settings: K+ 50 mM, Mg2+ 10 mM; 40 mM HEPES pH 7.0, 20 °C; N.D.; 0.5-1 mM ligand in syringe
[11] = test system: SAM-VI A37C (RNA, riboswitch) GGCAUUGUGCCUCGCAUUGCACUCCGCGGGGCGAUACGUCCUGAAAAGGGAUGUC; assay: ITC; settings: K+ 50 mM, Mg2+ 10 mM; 40 mM HEPES pH 7.0, 20 °C; N.D.; 0.5-1 mM ligand in syringe
[12] = test system: SAM-VI U8A (RNA, riboswitch) GGCAUUGAGCCUCGCAUUGCACUCCGCGGGGCGAUAAGUCCUGAAAAGGGAUGUC; assay: ITC; settings: K+ 50 mM, Mg2+ 10 mM; 40 mM HEPES pH 7.0, 20 °C; N.D.; 0.5-1 mM ligand in syringe
[13] = test system: SAM-VI A34G (RNA, riboswitch) GGCAUUGUGCCUCGCAUUGCACUCCGCGGGGCGGUAAGUCCUGAAAAGGGAUGUC; assay: ITC; settings: K+ 50 mM, Mg2+ 10 mM; 40 mM HEPES pH 7.0, 20 °C; N.D.; 0.5-1 mM ligand in syringe
[14] = test system: SAM-VI A36C (RNA, riboswitch) GGCAUUGUGCCUCGCAUUGCACUCCGCGGGGCGAUCAGUCCUGAAAAGGGAUGUC; assay: ITC; settings: K+ 50 mM, Mg2+ 10 mM; 40 mM HEPES pH 7.0, 20 °C; N.D.; 0.5-1 mM ligand in syringe
[15] = test system: SAM-VI G33A (RNA, riboswitch) GGCAUUGUGCCUCGCAUUGCACUCCGCGGGGCAAUAAGUCCUGAAAAGGGAUGUC; assay: ITC; settings: K+ 50 mM, Mg2+ 10 mM; 40 mM HEPES pH 7.0, 20 °C; N.D.; 0.5-1 mM ligand in syringe
[16] = test system: metK 61 (U39Ap) (RNA, riboswitch, 2-aminopurine at U39 (paper numbering)) GCAAACGAAAACGUAUCAUUGUGCCUCGCUGGGGAGCGGGGCGAUAAGUCCGAAAGAGGGA; assay: 2-aminopurine fluorescence; settings: K+ 100 mM, Mg2+ 2 mM; 50 mM KMOPS pH 7.5, 20 °C; 0.5 µM RNA, 15 µM SAM; no fluorescence change
[17] = test system: SAM-VI A36G/A37G/G38A (RNA, riboswitch) GGCAUUGUGCCUCGCAUUGCACUCCGCGGGGCGAUGGAUCCUGAAAAGGGAUGUC; assay: ITC; settings: K+ 50 mM, Mg2+ 10 mM; 40 mM HEPES pH 7.0, 20 °C; N.D.; 0.5-1 mM ligand in syringe
[18] = test system: SAM-VI G38C (RNA, riboswitch) GGCAUUGUGCCUCGCAUUGCACUCCGCGGGGCGAUAACUCCUGAAAAGGGAUGUC; assay: ITC; settings: K+ 50 mM, Mg2+ 10 mM; 40 mM HEPES pH 7.0, 20 °C; N.D.; 0.5-1 mM ligand in syringe
[19] = test system: metK 65 (U39Ap) (RNA, riboswitch, 2-aminopurine at U39 (paper numbering)) GCAAACGAAAACGUAUCAUUGUGCCUCGCUGGGGAGCGGGGCGAUAAGUCCGAAAGAGGGAUGAU; assay: 2-aminopurine fluorescence; settings: K+ 100 mM, Mg2+ 2 mM; 50 mM KMOPS pH 7.5, 20 °C; 0.5 µM RNA, 15 µM SAM; >3-fold fluorescence increase

| Kd [1] | kon [2] | kon [3] | Kd [4] | binding [5] | Kd [6] | binding [7] | binding [8] | Kd [9] | binding [10] | binding [11] | binding [12] | binding [13] | binding [14] | binding [15] | binding [16] | binding [17] | binding [18] | binding [19] | Compound |
| --- | --- | --- | --- | --- | --- | --- | --- | --- | --- | --- | --- | --- | --- | --- | --- | --- | --- | --- | --- |
| 4.4 ± 0.5 µM | 4230 ± 462 M⁻¹ s⁻¹ | 17,240 ± 1140 M^-1 s^-1 | 1.7 ± 0.3 µM | – | – | – | – | – | – | – | – | – | – | – | – | – | – | – | Nc1ncnc2c1ncn2[C@@H]1O[C@H](CN(CCO)CC[C@H](N)C(=O)O)[C@@H](O)[C@H]1O |
| 0.33 ± 0.06 µM | 62,550 ± 1900 M^-1 s^-1 | 24,580 ± 689 M^-1 s^-1 | 0.46 ± 0.02 µM | no | 2.31 ± 0.06 µM | no | no | 2.04 ± 0.11 µM | no | no | no | no | no | no | no | no | no | yes | C[S+](CC[C@H](N)C(=O)O)C[C@H]1O[C@@H](n2cnc3c(N)ncnc32)[C@H](O)[C@@H]1O (stereo partly drawn) |
| 10.9 ± 1.3 µM | 1460 ± 179 M⁻¹ s⁻¹ | 5500 ± 266 M⁻¹ s⁻¹ | 2.3 ± 0.1 µM | – | – | – | – | – | – | – | – | – | – | – | – | – | – | – | Nc1ncnc2c1ncn2[C@@H]1O[C@H](CSCC[C@H](N)C(=O)O)[C@@H](O)[C@H]1O |
